One compound from patent US8354423B2, “Insecticidal spironindane derivatives” (priority 2003, dated 2013) can be followed below.

As to `O=C(N/N=C1\CC2(CCN(C/C=C/c3ccc(Cl)cc3)CC2)c2ccccc21)Nc1ccc(OC(F)(F)F)cc1`, the melting point – broadly, the temperature, or range, at which the solid turns liquid – is 225 °C.
